In publication PMC5573420, “Correlation between human ether‐a‐go‐go‐related gene channel inhibition and action potential prolongation” (British Journal of Pharmacology, 2017):
Entries after “also recorded” stand apart in the source; their conditions may differ.

Tests used:
[1] = target: Nav1.5 (Homo sapiens, UniProt Q14524); assay: Sodium current inhibition in HEK cells stably expressing Nav1.5, planar patch clamp; conditions: for IC50: Nav1.5 IC50 (peak INa inhibition)
Description: (§1) Currents were low‐pass filtered at 10 kHz using the internal Bessel filter and sampled at 25 kHz. The extracellular solution for hERG current recording contained 140 mM NaCl, 4 mM KCl, 2 mM CaCl2, 1 mM MgCl2,5 mM D‐glucose and 10 mM HEPES (pH 7.4) (Sigma‐Aldrich). The intracellular solution for hERG current recording contained 50 mM KCl, 10 mM NaCl, 60 mM KF, 20 mM EGTA and 10 mM HEPES (pH 7.2). The extracellular solution for measuring sodium currents in HEK cells stably expressing the human clone of Nav1.5 (GenBank M77235) contained 4 mM KCl, 20 mM NaCl, 1.8 mM CaCl2, 0.75 mM MgCl2, 5 mM HEPES, 120 mM choline chloride and pH 7.4 using NaOH. The intracellular solution for sodium current recording contained 120 mM CsF, 20 mM CsCl, 5 mM EGTA, 5 mM HEPES and pH 7.4 using CsOH. All chemicals were obtained from Sigma‐Aldrich Chemie GmbH (Taufkirchen, Germany). The compound solutions were applied by means of the automated NPC‐16 Patchliner planar patch‐clamp platform.

[2] = target: hERG channels (Homo sapiens, UniProt Q12809); assay: hERG current inhibition, automated planar patch clamp in HEK293 cells stably expressing hERG
Description: as §1
Data are presented as mean ± SEM for at least five cells from two different batches or for three independent measurements with HEK293 cells.
The concentration–inhibition relationships were analysed by plotting the normalized values of peak tail current versus peak tail steady current in the presence of the respective cumulatively applied compound concentrations (Figure 4B, C). Data points were fitted using Hill equation.

[3] = tested on: hERG potassium channels; conditions: read-out: Ki binding studies; radioligand binding; ref Shagufta et al 2009; cited from earlier work
[4] = tested on: hiPSC-CMs; assay: Optical measurement of action potential duration (APD90) in hiPSC-CMs using voltage-sensitive dye di-4-ANEPPS
Description: The plates were then incubated at 37°C, 5% CO2. Forty‐eight hours post‐thaw, 100% of the plating medium was replaced with CDI Maintenance Medium (CDI, CMC‐100‐120‐001), and further, 100% media changes were performed every 2 days after that.
Afterwards, the medium containing VSD was replaced by fresh serum‐free medium, and the cells were returned to the incubator. The multi‐well plate was placed in an environmentally controlled stage incubator (37°C, 5% CO2, water‐saturated air atmosphere) (Okolab Inc, Burlingame, CA, USA) of the CelIOPTIQ platform (Clyde Biosciences Ltd, Glasgow, Scotland). The di‐4‐ANEPPS fluorescence signal was recorded from a 0.2 × 0.2 mm area using a 40× (NA 0.6) objective lens. Excitation wavelength was 470 ± 10 nm using a light‐emitting diode (LED), and emitted light was collected by two photomultipliers (PMTs) at 510–560 and 590–650 nm respectively. LED, PMT, associated power supplies and amplifiers were supplied by Cairn Research Ltd (Kent, UK). […] A 20 s recording was then taken 30 min after exposure to the drug or vehicle with only one concentration applied per well. The records were subsequently analysed offline using proprietary software (CellOPTIQ). The procedure was repeated from four to five times, and parallel matched control (vehicle) measurements were taken on cardiomyocytes with equivalent concentrations of vehicle (DMSO). AP parameters were measured, including APD at 50, 75 and 90% repolarization (APD50, APD75 and APD90 respectively). Data are given as % change from control for the treated groups (vehicle, control and drug). This allowed a single comparison to be made at each concentration, and every experiment was performed with its own set of controls (vehicle). No data were used more than once.

[5] = target: Cav1.2 (rabbit α1-subunit with β2a and α2-δ1) (Oryctolagus cuniculus, UniProt P15381); assay: in vitro; conditions: rabbit, pH 7.4, Cav1.2 IC50 (peak IBa inhibition)
Description: (§2) The transfection of tsA‐201 cells was performed using the FUGENE6 Transfection Reagent (Roche Diagonstics GmbH, Mannheim, Germany) following standard protocols. The tsA‐201 cells were used until passage number 15. […] The extracellular bath solution (in mM: BaCl2 20, MgCl2 1, HEPES 10, choline‐Cl 90) was titrated to pH 7.4 with methanesulfonic acid. […] The drugs were applied to cells under voltage clamp using a microminifold perfusion system. Ca^2+ channel block was estimated as peak IBa inhibition during a train of short (50 ms) test pulses from −80 mV at a frequency of 0.2 Hz. Patch clamp experiments to study hERG, Nav1.5 and Cav1.2 currents were performed at room temperature (22–25°C). All data were digitized and saved to disc. Current traces were filtered at 5 kHz and sampled at 10 kHz. The pClamp software package (Version 7.0 Axon Instruments, Inc.) was used for data acquisition and preliminary analysis. Microcal Origin 7.0 was used for analysis, and sigmoidal curves were fitted using the Hill equation.
(§3) Use‐dependent channel inhibition was studied during trains of 1 Hz and 50 ms test pulses (from −80 to +10 mV). After the application of 20 test pulses in control (absence of drug), the cells were incubated for 3 min with drug at rest. Peak current inhibition during the first pulse (1st, Figure 6C) in the presence of the drug reflects ‘resting state’ block. Additional current inhibition during a subsequently applied pulse train illustrates use‐dependent block. Peak current inhibition in control and drug are compared in Figure 6D.

[6] = target: rabbit CaV1.2 α1-subunit with β2a and α2-δ1 (Oryctolagus cuniculus, UniProt P15381); assay: Barium current (IBa) inhibition through Cav1.2 in transfected tsA-201 cells, manual patch clamp
Description: as §2, §3

[7] = Homo sapiens, 0.5 h, read-out: Changes in APD90 in hiPSC-CMs

Nav1.5, sequence (Q14524 whole entry): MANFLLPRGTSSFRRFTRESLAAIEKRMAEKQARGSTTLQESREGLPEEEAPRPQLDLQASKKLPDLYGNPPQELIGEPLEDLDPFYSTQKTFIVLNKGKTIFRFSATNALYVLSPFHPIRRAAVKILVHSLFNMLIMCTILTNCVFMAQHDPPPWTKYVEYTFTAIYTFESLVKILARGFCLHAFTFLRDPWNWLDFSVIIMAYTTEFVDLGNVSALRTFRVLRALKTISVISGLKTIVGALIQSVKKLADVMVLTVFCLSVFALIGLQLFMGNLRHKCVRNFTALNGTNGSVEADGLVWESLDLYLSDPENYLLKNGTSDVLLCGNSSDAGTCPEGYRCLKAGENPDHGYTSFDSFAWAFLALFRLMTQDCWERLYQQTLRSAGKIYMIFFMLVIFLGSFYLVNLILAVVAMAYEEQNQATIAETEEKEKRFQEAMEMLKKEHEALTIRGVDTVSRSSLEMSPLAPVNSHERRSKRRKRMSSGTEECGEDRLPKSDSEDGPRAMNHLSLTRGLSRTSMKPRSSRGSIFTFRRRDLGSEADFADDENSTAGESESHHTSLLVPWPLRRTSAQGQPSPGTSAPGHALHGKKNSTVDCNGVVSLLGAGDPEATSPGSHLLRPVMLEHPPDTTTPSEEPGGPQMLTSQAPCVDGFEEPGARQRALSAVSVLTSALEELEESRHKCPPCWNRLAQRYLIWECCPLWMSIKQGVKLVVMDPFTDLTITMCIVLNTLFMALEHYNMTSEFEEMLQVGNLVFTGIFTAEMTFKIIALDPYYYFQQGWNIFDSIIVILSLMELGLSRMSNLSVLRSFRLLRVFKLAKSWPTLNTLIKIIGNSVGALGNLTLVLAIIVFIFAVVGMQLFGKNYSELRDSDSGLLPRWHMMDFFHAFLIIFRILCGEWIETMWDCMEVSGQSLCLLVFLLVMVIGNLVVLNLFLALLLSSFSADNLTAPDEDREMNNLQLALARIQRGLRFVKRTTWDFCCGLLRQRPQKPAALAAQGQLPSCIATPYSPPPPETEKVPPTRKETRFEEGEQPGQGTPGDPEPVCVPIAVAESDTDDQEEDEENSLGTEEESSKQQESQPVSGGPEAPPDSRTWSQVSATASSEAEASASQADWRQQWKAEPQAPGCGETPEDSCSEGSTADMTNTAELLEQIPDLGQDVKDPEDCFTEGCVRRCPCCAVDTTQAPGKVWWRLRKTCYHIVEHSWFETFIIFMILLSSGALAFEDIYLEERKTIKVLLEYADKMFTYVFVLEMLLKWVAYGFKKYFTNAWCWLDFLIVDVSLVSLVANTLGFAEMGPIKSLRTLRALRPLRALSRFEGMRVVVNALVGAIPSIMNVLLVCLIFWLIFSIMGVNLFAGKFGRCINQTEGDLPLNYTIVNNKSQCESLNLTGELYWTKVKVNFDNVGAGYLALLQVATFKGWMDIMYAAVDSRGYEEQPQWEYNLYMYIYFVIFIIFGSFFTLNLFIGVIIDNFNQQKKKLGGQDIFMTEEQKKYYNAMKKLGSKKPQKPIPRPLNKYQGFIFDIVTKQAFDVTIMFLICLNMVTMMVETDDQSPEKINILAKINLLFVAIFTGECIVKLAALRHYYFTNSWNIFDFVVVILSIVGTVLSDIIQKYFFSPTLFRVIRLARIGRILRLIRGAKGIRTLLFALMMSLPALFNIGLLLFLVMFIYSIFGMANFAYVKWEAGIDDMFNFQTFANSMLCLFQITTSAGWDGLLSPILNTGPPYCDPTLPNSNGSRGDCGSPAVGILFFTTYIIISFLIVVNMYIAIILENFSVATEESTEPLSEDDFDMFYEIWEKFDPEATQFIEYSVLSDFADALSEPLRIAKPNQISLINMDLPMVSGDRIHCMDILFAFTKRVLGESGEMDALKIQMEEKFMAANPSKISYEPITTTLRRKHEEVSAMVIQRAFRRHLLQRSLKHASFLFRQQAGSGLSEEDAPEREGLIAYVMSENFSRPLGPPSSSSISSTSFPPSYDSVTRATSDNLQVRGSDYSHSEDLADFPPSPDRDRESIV
hERG channels, sequence (Q12809 whole entry): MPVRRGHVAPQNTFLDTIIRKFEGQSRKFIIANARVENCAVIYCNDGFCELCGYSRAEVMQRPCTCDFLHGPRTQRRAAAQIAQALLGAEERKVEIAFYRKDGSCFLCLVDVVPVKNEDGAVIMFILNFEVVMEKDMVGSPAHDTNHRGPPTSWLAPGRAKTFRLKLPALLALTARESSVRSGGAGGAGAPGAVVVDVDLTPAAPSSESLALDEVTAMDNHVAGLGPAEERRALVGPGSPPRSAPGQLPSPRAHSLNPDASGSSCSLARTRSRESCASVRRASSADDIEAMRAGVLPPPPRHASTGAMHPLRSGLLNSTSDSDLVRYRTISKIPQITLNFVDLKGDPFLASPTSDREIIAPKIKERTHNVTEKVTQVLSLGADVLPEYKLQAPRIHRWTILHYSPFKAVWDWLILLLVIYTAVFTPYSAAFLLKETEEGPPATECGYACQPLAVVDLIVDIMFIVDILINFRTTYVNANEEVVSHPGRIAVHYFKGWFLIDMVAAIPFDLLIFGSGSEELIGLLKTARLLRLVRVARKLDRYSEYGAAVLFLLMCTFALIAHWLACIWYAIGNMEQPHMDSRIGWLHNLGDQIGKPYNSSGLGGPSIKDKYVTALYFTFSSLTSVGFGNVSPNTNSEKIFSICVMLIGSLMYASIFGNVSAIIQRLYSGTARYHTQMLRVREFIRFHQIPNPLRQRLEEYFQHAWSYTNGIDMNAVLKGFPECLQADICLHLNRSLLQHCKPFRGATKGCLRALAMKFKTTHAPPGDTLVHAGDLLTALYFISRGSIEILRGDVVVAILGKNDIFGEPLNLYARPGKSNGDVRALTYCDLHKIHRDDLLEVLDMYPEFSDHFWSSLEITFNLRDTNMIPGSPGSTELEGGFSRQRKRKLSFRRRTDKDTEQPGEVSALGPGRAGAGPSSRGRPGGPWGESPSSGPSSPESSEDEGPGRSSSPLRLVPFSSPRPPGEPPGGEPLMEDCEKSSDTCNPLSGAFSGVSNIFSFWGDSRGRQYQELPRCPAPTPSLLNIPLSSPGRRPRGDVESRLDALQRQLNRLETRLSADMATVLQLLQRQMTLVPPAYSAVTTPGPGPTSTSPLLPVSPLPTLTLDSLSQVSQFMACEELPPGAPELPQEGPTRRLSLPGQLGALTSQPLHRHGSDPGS

SMILES: CN(CCOc1ccc(Cl)c(Cl)c1)CCc1ccccc1 [Dofe44]
- Shift of Nav1.5 concentration-response curve towards lower concentrations ([1]; -80 mV versus -140 mV holding potential): fivefold
- IC50 ([1]; holding potential -80 mV): 4.7 ± 2 µM
- IC50 ([1]; holding potential -140 mV, 0.2 Hz): 23.3 ± 1.9 µM
- IC50 [2]: 0.0381 ± 0.0126 µM
- Ki [3]: 0.0024 ± 0.0022 µM
- activity at 0.01 µM [4, 7]: 90%
- activity at 0.1 µM [4, 7]: 83%
- activity at 0.3 µM [4, 7]: 87%
- activity at 1 µM [4, 7]: 92%
- EC (50% APD prolongation) ([4]; Homo sapiens, read-out: D150 (concentration that prolongs the AP by 50%), APD90 in hiPSC-CMs): > 0.6 µM
- Effect on APD90 / AP prolongation (in words) ([4]; hiPSC-CMs): did not affect APD90 even at 1 μM; also recorded: did not induce prolongation of AP
- IC50 [5]: > 100 µM
- Resting state and use-dependent block of Cav1.2 ([6]; 1 Hz trains of 50 ms pulses after 3 min incubation at rest): No use‐dependent block
- Cav1.2 IC50 (peak IBa inhibition) ([6]; rabbit, pH 7.4): > 200 µM
